Key:
Format in all cases: cell-based
[1] = biological target: T1, wild-type Androgen Receptor (AR-wt) (Homo sapiens (Human), UniProt P10275); assay: LNCaP-AR-wt ANT reporter assay (antagonist mode); conditions: for IC50: antagonist mode, pIC50 = −Log10(IC50 in Molar), read-out: LNCaP-AR-wt ANT pIC50 (converted); for Emax: maximum % inhibition of R1881 control response over the tested concentration range, read-out: LNCaP-AR-wt ANT MAX % Inh
[2] = biological target: T1, wild-type Androgen Receptor (AR-wt); assay: LNCaP-AR-wt AG reporter assay (agonist mode); conditions: for EC50: agonist mode, pEC50 = −Log10(EC50 in Molar), read-out: LNCaP-AR-wt AG pEC50 (converted); for Emax: maximum % stimulation (agonist response) over the tested concentration range, read-out: LNCaP-AR-wt AG MAX % Stim
[3] = biological target: T2, F876L mutant Androgen Receptor (AR-F876L) (Homo sapiens (Human), UniProt P10275, F877L); assay: LNCaP-AR-F876L ANT reporter assay (antagonist mode); conditions: for IC50: antagonist mode, pIC50 = −Log10(IC50 in Molar), read-out: LNCaP-AR-F876L ANT pIC50 (converted); for Emax: maximum % inhibition of R1881 control response over the tested concentration range, read-out: LNCaP-AR-F876L ANT MAX % Inh
[4] = biological target: T2, F876L mutant Androgen Receptor (AR-F876L); assay: LNCaP-AR-F876L AG reporter assay (agonist mode); conditions: for EC50: agonist mode, pEC50 = −Log10(EC50 in Molar), read-out: LNCaP-AR-F876L AG pEC50 (converted); for Emax: maximum % stimulation (agonist response) over the tested concentration range, read-out: LNCaP-AR-F876L AG MAX % Stim

T1 sequence (P10275 whole entry): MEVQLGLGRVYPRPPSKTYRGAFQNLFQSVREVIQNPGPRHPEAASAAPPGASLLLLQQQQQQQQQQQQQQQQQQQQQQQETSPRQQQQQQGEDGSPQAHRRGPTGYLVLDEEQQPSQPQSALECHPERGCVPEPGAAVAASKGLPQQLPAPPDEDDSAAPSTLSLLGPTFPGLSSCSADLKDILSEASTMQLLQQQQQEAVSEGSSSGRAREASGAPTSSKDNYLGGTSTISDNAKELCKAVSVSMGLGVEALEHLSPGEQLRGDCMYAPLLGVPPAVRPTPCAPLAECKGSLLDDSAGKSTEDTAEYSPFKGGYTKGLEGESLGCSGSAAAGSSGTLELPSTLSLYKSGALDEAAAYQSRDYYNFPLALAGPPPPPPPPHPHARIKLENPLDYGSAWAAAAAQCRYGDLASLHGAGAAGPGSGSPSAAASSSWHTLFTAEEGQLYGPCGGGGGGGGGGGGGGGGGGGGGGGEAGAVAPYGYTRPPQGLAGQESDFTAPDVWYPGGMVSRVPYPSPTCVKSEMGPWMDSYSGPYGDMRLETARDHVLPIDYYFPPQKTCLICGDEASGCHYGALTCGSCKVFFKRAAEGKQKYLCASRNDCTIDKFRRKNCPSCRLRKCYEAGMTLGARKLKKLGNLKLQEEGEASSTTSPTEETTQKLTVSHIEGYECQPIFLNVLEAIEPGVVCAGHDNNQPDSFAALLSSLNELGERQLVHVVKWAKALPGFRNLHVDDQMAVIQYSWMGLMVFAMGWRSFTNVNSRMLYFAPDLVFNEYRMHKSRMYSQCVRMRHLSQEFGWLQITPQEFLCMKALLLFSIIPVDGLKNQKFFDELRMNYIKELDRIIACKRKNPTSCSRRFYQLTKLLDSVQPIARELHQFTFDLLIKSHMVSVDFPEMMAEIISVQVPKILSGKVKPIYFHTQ
T2 sequence (P10275 whole entry F877L): as the sequence (P10275 whole entry) above, with F877L counted along it

SMILES	IC50 [1]	Emax [1]	EC50 [2]	Emax [2]	IC50 [3]	Emax [3]	EC50 [4]	Emax [4]
N#Cc1ncc(N2C(=O)C3(CCC3)N(c3ccc(OC4CCN(CC(O)CN)CC4)cc3)C2=S)cc1C(F)(F)F (stereo not drawn) [Cpd 157, 5-[8-[4-[[1-(3-amino-2-hydroxy-propyl)-4-piperidyl]oxy]phenyl]-5-oxo-7-thioxo-6,8-diazaspiro[3.4]octan-6-yl]-3-(trifluoromethyl)pyridine-2-carbonitrile]	724 nM	102%	> 15100 nM	-0.2%	501 nM	99.8%	> 15100 nM	0%
N#Cc1ncc(N2C(=O)C3(CCC3)N(c3ccc4c(cnn4CCO)c3)C2=S)cc1C(F)(F)F [Cpd 159, 5-[8-[1-(2-hydroxyethyl)indazol-5-yl]-5-oxo-7-thioxo-6,8-diazaspiro[3.4]octan-6-yl]-3-(trifluoromethyl)pyridine-2-carbonitrile]	1350 nM	100%	> 15100 nM	0.2%	309 nM	100%	> 15100 nM	0.2%
COCCn1ncc2ccc(N3C(=S)N(c4cnc(C#N)c(C(F)(F)F)c4)C(=O)C34CCC4)cc21 [Cpd 160, 5-[8-[1-(2-methoxyethyl)indazol-6-yl]-5-oxo-7-thioxo-6,8-diazaspiro[3.4]octan-6-yl]-3-(trifluoromethyl)pyridine-2-carbonitrile]	1230 nM	103%	> 15100 nM	0.1%	708 nM	101%	> 15100 nM	0%
COc1cc(N2C(=O)C3(CCC3)N(c3ccc4nn(CCO)cc4c3)C2=S)cnc1C#N [Cpd 164, 5-[8-[2-(2-hydroxyethyl)indazol-5-yl]-5-oxo-7-thioxo-6,8-diazaspiro[3.4]octan-6-yl]-3-methoxy-pyridine-2-carbonitrile]	537 nM	102%	> 15100 nM	0.3%	295 nM	101%	> 15100 nM	0%
CN1CCC12CC(Oc1ccc(N3C(=S)N(c4cnc(C#N)c(C(F)(F)F)c4)C(=O)C34CCC4)cc1)C2 (stereo not drawn) [Cpd 166, 5-[8-[4-[(3-methyl-3-azaspiro[3.3]heptan-6-yl)oxy]phenyl]-5-oxo-7-thioxo-6,8-diazaspiro[3.4]octan-6-yl]-3-(trifluoromethyl)pyridine-2-carbonitrile]	331 nM	102%	> 15100 nM	0.2%	200 nM	101%	> 15100 nM	0.1%
COc1cc(N2C(=O)C3(CCC3)N(c3ccc4c(cnn4CCO)c3)C2=S)cnc1C#N [Cpd 167, 5-[8-[1-(2-hydroxyethyl)indazol-5-yl]-5-oxo-7-thioxo-6,8-diazaspiro[3.4]octan-6-yl]-3-methoxy-pyridine-2-carbonitrile]	832 nM	101%	> 15100 nM	-0.2%	288 nM	102%	> 15100 nM	0%
Cn1ncc2cc(N3C(=S)N(c4cnc(C#N)c(Cl)c4)C(=O)C34CCC4)ccc21 [Cpd 168, 3-chloro-5-[8-(1-methylindazol-5-yl)-5-oxo-7-thioxo-6,8-diazaspiro[3.4]octan-6-yl]pyridine-2-carbonitrile]	95.5 nM	101%	> 15100 nM	0%	145 nM	99.3%	> 15100 nM	0.8%
CN1CC2CC1CC2Oc1ccc(N2C(=S)N(c3cnc(C#N)c(C(F)(F)F)c3)C(=O)C23CCC3)cc1 [Cpd 176, (R,S)-5-[8-[4-[(2-methyl-2-azabicyclo[2.2.1]heptan-5-yl)oxy]phenyl]-5-oxo-7-thioxo-6,8-diazaspiro[3.4]octan-6-yl]-3-(trifluoromethyl)pyridine-2-carbonitrile]	479 nM	104%	> 15100 nM	0.3%	269 nM	101%	> 15100 nM	0.1%

Further lines, results first:

IC50 [1]	Emax [1]	EC50 [2]	Emax [2]	IC50 [3]	Emax [3]	EC50 [4]	Emax [4]	SMILES
302 nM	97.4%	> 15100 nM	1.1%	219 nM	98%	> 15100 nM	2.6%	N#Cc1ncc(N2C(=O)C3(CCC3)N(c3ccc4[nH]ncc4c3)C2=S)cc1Cl [Cpd 155, 3-chloro-5-[8-(1H-indazol-5-yl)-5-oxo-7-thioxo-6,8-diazaspiro[3.4]octan-6-yl]pyridine-2-carbonitrile]
282 nM	100%	> 15100 nM	1%	178 nM	101%	> 15100 nM	0.9%	N#Cc1ncc(N2C(=O)C3(CCC3)N(c3ccc(OC4CCN5CCCC5C4)cc3)C2=S)cc1C(F)(F)F (stereo not drawn) [Cpd 156, 5-[8-[4-(1,2,3,5,6,7,8,8a-octahydroindolizin-7-yloxy)phenyl]-5-oxo-7-thioxo-6,8-diazaspiro[3.4]octan-6-yl]-3-(trifluoromethyl)pyridine-2-carbonitrile]
724 nM	100%	> 15100 nM	0.4%	288 nM	99.3%	> 15100 nM	0.1%	N#Cc1ncc(N2C(=O)C3(CCC3)N(c3ccc4c(cnn4CCO)c3)C2=S)cc1Cl [Cpd 163, 3-chloro-5-[8-[1-(2-hydroxyethyl)indazol-5-yl]-5-oxo-7-thioxo-6,8-diazaspiro[3.4]octan-6-yl]pyridine-2-carbonitrile]
324 nM	101%	> 15100 nM	0.2%	316 nM	100%	> 15100 nM	0%	N#Cc1ncc(N2C(=O)C3(CCC3)N(c3ccc(OC4CC5CC4CN5)nc3)C2=S)cc1C(F)(F)F [Cpd 165, (R,S)-5-[8-[6-(2-azabicyclo[2.2.1]heptan-5-yloxy)-3-pyridyl]-5-oxo-7-thioxo-6,8-diazaspiro[3.4]octan-6-yl]-3-(trifluoromethyl)pyridine-2-carbonitrile]
589 nM	101%	> 15100 nM	0.2%	309 nM	102%	> 15100 nM	0.1%	COCCn1ncc2cc(N3C(=S)N(c4cnc(C#N)c(C(F)(F)F)c4)C(=O)C34CCC4)ccc21 [Cpd 170, 5-[8-[1-(2-methoxyethyl)indazol-5-yl]-5-oxo-7-thioxo-6,8-diazaspiro[3.4]octan-6-yl]-3-(trifluoromethyl)pyridine-2-carbonitrile]
437 nM	100%	> 15100 nM	0.4%	186 nM	100%	> 15100 nM	0.1%	COCCn1ncc2cc(N3C(=S)N(c4cnc(C#N)c(OC)c4)C(=O)C34CCC4)ccc21 [Cpd 173, 3-methoxy-5-[8-[1-(2-methoxyethyl)indazol-5-yl]-5-oxo-7-thioxo-6,8-diazaspiro[3.4]octan-6-yl]pyridine-2-carbonitrile]
525 nM	102%	> 15100 nM	0.2%	457 nM	100%	> 15100 nM	0.4%	CN1CC2CC1CC2Oc1ccc(N2C(=S)N(c3cnc(C#N)c(C(F)(F)F)c3)C(=O)C23CCC3)cn1 [Cpd 177, (R,S)-5-[8-[6-[(2-methyl-2-azabicyclo[2.2.1]heptan-5-yl)oxy]-3-pyridyl]-5-oxo-7-thioxo-6,8-diazaspiro[3.4]octan-6-yl]-3-(trifluoromethyl)pyridine-2-carbonitrile]
1230 nM	100%	> 15100 nM	-0.2%	468 nM	101%	> 15100 nM	-0.2%	COCCn1cc2ccc(N3C(=S)N(c4cnc(C#N)c(C(F)(F)F)c4)C(=O)C34CCC4)cc2n1 [Cpd 179, 5-[8-[2-(2-methoxyethyl)indazol-6-yl]-5-oxo-7-thioxo-6,8-diazaspiro[3.4]octan-6-yl]-3-(trifluoromethyl)pyridine-2-carbonitrile]
550 nM	103%	> 15100 nM	0%	191 nM	102%	> 15100 nM	0.1%	N#Cc1ncc(N2C(=O)C3(CCC3)N(c3ccc4c(cnn4C4CCNCC4)c3)C2=S)cc1Cl [Cpd 182, 3-chloro-5-[5-oxo-8-[1-(4-piperidyl)indazol-5-yl]-7-thioxo-6,8-diazaspiro[3.4]octan-6-yl]pyridine-2-carbonitrile]
813 nM	100%	> 15100 nM	0.2%	447 nM	99.6%	> 15100 nM	0.4%	CN1CCC[C@H](CNC(=O)c2ccc(N3C(=S)N(c4cnc(C#N)c(C(F)(F)F)c4)C(=O)C34CCC4)cc2)C1 [Cpd 184, 4-[6-[6-cyano-5-(trifluoromethyl)-3-pyridyl]-5-oxo-7-thioxo-6,8-diazaspiro[3.4]octan-8-yl]-N-[[(3R)-1-methyl-3-piperidyl]methyl]benzamide]
